Where two headings read alike, the source gives them in different places.
What was measured:
[1] = test system: Murine erythroleukemia (MEL) cells; assay: MEL cell differentiation assay (benzidine assay; cell growth by Coulter Counter); type: cell-based; conditions: for MEL Differentiation % B+ / MEL Differentiation Opt.: Table 1; for MEL Differentiation % B+: benzidine-positive cells at Opt. concentration; for MEL Differentiation Opt.: optimal concentration; for MEL Diff Cells/ml × 10^−5: cell growth
Experimental: (§1) The MEL cell differentiation assay was used to assess the ability of Compound 1 to induce terminal differentiation. MEL cells (logarithmically dividing) were cultured with the indicated concentrations of Compound 1. Following a 5-day culture period, cell growth was determined using a Coulter Counter and differentiation was determined microscopically using the benzidine assay to determine hemoglobin protein accumulation on a per cell basis.
as §1, with “2” for “1”, “2.” for “1.”, “period” for “period, cell growth was determined using a Coulter Counter and”
as §1, with “3” for “1”, “3.” for “1.”, “period” for “period, cell growth was determined using a Coulter Counter and”, “microsdopically” for “microscopically”
as §1, with “4” for “1”, “4.” for “1.”, “period” for “period, cell growth was determined using a Coulter Counter and”
All the compounds which were prepared were tested. […] Table 2 is compiled from experiments similar to the experiments described in Examples 7-10 above.

[2] = test system: CWR22 human prostate xenograft; conditions: 50 mg/kg/day
Text: SAHA is currently in Phase I Clinical Trials in patients with solid tumors.

[3] = test system: acetylated histones H3 and H4 in peripheral blood mononuclear cells; assay: Acetylated histones in peripheral blood mononuclear cells of patients under treatment; type: in vivo; conditions: IV infusion daily ×3, FIG. 10
Experimental: FIG. 10. SAHA causes accumulation of acetylation histones H3 and H4 in peripheral blood […] cells in patients. SAHA was administered by IV infusion daily ×3. Samples were isolated before (Pre), following infusion (Post) and 2 hours after infusion.
The in vivo effect of SAHA has been studied using the CWR22 human prostate xenograft in mice (68).

[4] = target: HDAC (Homo sapiens, UniProt Q13547); assay: Inhibition of the enzyme HDAC (Examples 12 and 13); type: biochemical; conditions: read-out: ID50 as inhibitor of HDAC
Chain of HDAC (Q13547 whole entry): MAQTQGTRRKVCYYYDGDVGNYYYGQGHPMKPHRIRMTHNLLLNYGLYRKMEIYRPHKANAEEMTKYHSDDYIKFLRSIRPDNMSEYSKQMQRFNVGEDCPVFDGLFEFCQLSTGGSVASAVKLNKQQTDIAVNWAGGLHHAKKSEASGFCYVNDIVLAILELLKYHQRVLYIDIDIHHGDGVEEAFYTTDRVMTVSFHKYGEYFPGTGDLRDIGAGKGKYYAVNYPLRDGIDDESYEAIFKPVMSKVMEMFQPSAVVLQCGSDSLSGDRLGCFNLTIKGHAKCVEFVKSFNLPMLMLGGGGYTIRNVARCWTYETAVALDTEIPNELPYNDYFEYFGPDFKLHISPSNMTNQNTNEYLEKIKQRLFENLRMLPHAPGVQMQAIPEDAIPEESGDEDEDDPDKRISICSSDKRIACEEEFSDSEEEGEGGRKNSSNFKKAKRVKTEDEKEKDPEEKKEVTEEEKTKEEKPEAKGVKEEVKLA

[5] = target: T1, affinity purified human epitope-tagged (Flag) HDAC1 (Homo sapiens, UniProt Q13547); conditions: cited from earlier work
T1 sequence (Q13547 whole entry): as above

[6] = target: HDAC3 (Homo sapiens, UniProt O15379); conditions: cited from earlier work
Chain of HDAC3 (O15379 whole entry): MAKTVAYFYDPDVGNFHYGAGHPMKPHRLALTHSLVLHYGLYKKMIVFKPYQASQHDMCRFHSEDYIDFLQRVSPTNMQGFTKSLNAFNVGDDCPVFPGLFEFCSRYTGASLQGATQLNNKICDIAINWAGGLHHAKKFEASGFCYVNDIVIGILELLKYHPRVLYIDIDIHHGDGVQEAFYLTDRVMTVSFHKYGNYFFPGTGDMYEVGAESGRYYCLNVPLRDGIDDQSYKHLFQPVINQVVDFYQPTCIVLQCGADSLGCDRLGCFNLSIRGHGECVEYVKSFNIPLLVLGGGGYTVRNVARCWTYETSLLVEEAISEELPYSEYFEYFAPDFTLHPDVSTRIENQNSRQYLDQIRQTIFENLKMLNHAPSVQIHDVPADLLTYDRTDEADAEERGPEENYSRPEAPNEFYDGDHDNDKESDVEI
Chain of HDAC3 (Q9Y618 whole entry, further chain): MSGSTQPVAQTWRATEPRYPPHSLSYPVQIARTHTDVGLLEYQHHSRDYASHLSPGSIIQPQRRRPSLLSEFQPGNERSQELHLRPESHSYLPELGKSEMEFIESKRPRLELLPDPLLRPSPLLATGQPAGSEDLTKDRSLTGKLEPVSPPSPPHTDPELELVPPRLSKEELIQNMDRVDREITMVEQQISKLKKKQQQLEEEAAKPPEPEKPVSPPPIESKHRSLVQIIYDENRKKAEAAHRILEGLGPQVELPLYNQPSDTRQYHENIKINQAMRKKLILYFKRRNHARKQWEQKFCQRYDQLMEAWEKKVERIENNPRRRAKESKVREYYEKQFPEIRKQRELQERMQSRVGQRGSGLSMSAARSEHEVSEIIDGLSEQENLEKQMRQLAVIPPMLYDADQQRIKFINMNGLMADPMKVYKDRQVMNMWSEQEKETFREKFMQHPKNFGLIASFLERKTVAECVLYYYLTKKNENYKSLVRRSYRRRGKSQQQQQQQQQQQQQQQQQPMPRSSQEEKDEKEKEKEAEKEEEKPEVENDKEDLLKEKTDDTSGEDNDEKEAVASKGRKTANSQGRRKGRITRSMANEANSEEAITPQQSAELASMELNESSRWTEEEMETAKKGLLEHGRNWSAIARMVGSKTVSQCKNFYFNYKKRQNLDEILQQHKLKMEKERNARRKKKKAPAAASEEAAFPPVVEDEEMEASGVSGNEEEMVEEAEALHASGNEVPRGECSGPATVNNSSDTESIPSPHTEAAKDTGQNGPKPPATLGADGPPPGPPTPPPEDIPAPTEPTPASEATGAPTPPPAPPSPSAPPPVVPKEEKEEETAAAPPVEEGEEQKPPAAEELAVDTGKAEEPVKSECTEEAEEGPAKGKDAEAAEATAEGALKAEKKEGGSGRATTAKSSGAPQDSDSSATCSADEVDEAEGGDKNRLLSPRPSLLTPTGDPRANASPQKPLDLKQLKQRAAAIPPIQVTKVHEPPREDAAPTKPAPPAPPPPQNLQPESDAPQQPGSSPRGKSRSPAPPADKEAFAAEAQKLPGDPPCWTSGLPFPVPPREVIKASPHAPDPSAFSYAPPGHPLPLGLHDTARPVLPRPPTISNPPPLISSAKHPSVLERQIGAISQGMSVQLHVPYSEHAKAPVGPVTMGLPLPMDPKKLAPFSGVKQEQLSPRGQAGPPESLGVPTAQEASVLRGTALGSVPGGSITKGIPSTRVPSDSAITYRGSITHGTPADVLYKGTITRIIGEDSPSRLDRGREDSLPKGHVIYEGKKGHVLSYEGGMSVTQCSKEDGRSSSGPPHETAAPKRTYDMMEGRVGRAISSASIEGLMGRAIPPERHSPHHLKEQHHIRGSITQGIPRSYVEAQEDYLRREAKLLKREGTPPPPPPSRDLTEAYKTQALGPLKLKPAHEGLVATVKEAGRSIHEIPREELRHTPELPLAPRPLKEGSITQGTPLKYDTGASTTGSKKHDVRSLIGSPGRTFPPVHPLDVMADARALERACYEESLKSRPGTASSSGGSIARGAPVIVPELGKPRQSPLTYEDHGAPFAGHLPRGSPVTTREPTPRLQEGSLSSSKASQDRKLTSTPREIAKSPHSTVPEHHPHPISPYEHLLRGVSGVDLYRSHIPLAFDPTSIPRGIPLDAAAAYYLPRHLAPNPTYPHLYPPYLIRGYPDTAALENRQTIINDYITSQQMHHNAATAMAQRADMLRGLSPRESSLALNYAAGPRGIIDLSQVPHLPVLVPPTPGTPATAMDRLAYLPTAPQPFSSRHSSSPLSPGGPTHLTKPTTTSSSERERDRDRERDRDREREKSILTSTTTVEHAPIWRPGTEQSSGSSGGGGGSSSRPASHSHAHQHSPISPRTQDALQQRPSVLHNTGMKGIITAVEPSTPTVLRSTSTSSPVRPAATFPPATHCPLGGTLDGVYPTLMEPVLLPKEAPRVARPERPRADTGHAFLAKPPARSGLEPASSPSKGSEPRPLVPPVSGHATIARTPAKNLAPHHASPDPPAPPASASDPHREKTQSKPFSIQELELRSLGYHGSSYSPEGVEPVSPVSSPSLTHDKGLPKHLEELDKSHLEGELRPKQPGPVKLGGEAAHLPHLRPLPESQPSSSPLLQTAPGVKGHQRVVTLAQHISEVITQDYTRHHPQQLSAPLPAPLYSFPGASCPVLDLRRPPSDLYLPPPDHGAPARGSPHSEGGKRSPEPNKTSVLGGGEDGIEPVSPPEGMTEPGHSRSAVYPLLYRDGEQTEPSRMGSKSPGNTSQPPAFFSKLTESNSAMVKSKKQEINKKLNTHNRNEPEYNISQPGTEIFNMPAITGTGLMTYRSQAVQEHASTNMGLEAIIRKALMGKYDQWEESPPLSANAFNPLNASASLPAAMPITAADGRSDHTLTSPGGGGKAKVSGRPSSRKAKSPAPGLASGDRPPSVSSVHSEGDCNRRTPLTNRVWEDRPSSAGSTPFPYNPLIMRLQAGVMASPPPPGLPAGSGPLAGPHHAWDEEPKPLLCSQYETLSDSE

[7] = target: T1, affinity purified human epitope-tagged (Flag) HDAC1; assay: Histone Deacetylase (HDAC) enzymatic activity, [3H]acetyl-labeled histone substrate; type: biochemical; design: Flag
Experimental: (§2) Substrate ([^3H]acetyl-labeled murine erythroleukemia cell-derived histone) was added and the samples were incubated for 20 min at 37° C. in a total volume of 30 μl. The reaction were then stopped and released acetate was extracted and the amount of radioactivity released determined by scintillation counting.
as §2, with “Substrate ([^3H]acetyl-labelled” for “Substrate ([^3H]acetyl-labeled”, “The reactions” for “The reaction”, “and relaesed” for “and released”
as §2, with “([^3H]acetyl-labelled” for “([^3H]acetyl-labeled”, “reactions” for “reaction”
The effect was assayed by incubating the enzyme preparation in the absence of substrate on ice for 20 minutes with the indicated amounts of compound. Substrate([^3H]acetyl-labeled murine erythroleukemia cell-derived histones) was added and the samples were incubated for 20 minutes at 37° C. in a total volume of 30 μl. The reactions were then stopped and released acetate was extracted and the amount of radioactivity released determined by scintillation counting.

[8] = Table 2, unit nM, read-out: HDAC inh ID50

| Structure (SMILES) | MEL Differentiation % B+ [1] | MEL Differentiation Opt. ([1]; 5-day culture) | MEL Diff % B+ ([1]; Table 2) | MEL Diff Cells/ml × 10^−5 ([1]; Table 2) | IC50 ([4]; Example 12) | IC50 [7, 8] | further results |
| --- | --- | --- | --- | --- | --- | --- | --- |
| O=C(CCCCCCC(=O)Nc1ccccc1)NO [SAHA, suberoylanilide hydroxamic acid, reference compound] | 68% | 2500 nM | 68% | 3.6 Cells/ml × 10^−5 | – | – | optimal dose for the cytodifferentiation of MEL cells ([1]; Example 12): 2.5 µM; MEL Diff Opt. ([1]; Table 2, cells printed in μM): 2.5 µM; reduction in mean final tumor volume compared to controls [2]: 97%; toxicity [2]: no .apparent toxicity; acetylated histones H3 and H4 in the tumor xenograft ([2]; FIG. 9): increase; acetylated histones H3 and H4 in peripheral blood mononuclear cells [3]: accumulation; IC50 [4]: 1000 nM; inhibition of affinity purified HDAC1 [5]: inhibits; inhibition of affinity purified HDAC3 [6]: inhibits |
| O=C(CCCCC[C@H](NC(=O)OCc1ccccc1)C(=O)Nc1cccc2cccnc12)NO [Compound 4, N-benzyloxycarbonyl-(L)-α-aminosuberoyl-8-quinolinamide-ω-hydroxamic acid] | 8% | 40 nM | 8% | 13 Cells/ml × 10^−5 | 2.5 nM | 2.5 nM | concentration able to induce MEL cell differentiation ([1]; FIGS. 1, 3, 4, 6, 5-day culture): 40 nM; IC50 ([7]; FIGS. 2, 5, 7, read-out: ID50 of HDAC1 enzymatic activity): < 10 nM; IC50 ([7]; Table 1, read-out: HDAC Inhibition ID50): < 10 nM |
| O=C(CCCCCC(C(=O)Nc1cccc2cccnc12)C(=O)Nc1cccc2cccnc12)NO [Compound 7] | – | – | – | – | 50 nM | – | – |
| O=C(CCCCCC(NC(=O)OCc1ccccc1)C(=O)Nc1ccccc1)NO (stereo not drawn) [Compound 3, N-benzyloxycarbonyl-(L)-α-aminosuberateanilide-ω-hydroxamic acid] | – | – | 16% | 3.3 Cells/ml × 10^−5 | – | 100 nM | – |
| O=C(CCCCCCC(=O)Nc1cccc2cccnc12)NO [Compound 668] | – | – | 11% | 4.7 Cells/ml × 10^−5 | – | 100 nM | – |
